16 compounds from US11584737B2, “Heterocyclic compound” (TAKEDA PHARMACEUTICAL COMPANY LIMITED, priority 2018, dated 2023) can be followed below.

Molecules are shown by their SMILES.

The test system of assay [1] is A2780 cells. The assay can be described thus: In vitro proliferation suppression test (CellTiter-Glo). Type of assay: cell-based, human. To be noted: A2780 cell proliferation inhibitory rate at 1 μM test compound, three days; for inhibition at 1 µM: Homo sapiens, 72 h. The protocol: Experimental Example 4: In Vitro Proliferation Suppression Test
The proliferation suppressive activity of compound in A2780 cells was evaluated by the following method.
A2780 cells were seeded in a 384-well white plate at a cell density of 1,000 cells/40 μL/well or a 96-well white plate at a cell density of 1,000 cells/90 μL/well using an assay medium (RPMI1640 medium containing 10% fetal bovine serum (FUJIFILM Wako Pure Chemical Corporation)) and incubated at 37° C. in 5% CO2.
The next day, a test compound dissolved in dimethyl sulfoxide (DMSO) was diluted with an assay medium, the obtained compound solution was added by 40 μL/well or 10 μL/well to each well of the plate containing A2780 cells and the mixture was incubated (test compound addition group). In addition, a similar reaction was performed without adding the test compound (test compound non-addition group).
Three days later, 80 μL or 100 μL of CellTiter-Glo reagent (Promega) was added, and the mixture was stirred for 10 min. Thereafter, the luminescence of each well was measured by ARVO-MX multilabel counter (Perkin Elmer Inc.).
The proliferation inhibitory rate (%) of each test compound against A2780 cells was calculated by the following calculation formula. Proliferation inhibitory rate (%)=(1−luminescence of test compound addition group÷luminescence of test compound non-addition group)×100
The A2780 cell proliferation inhibitory rate (%) of 1 μM test compound is shown below.
Background: Cellular ATP, detected with luciferase, serves as a proxy for viable cell number.

The target of assay [2] is CDK12/CycK complex (Homo sapiens, UniProt Q9NYV4). The assay can be described thus: Measurement of CDK12 inhibitory activity by binding assay (BODIPY-FL labeled AT-7519 high concentration conditions, 1320 nM). The settings on record: inhibitory rate against CDK12 at 1 μM test compound, 1320 nM BODIPY-FL-labeled AT-7519, 8 nM CDK12/CycK. The protocol: (4) Measurement of CDK12 Inhibitory Activity by Binding Assay (BODIPY-FL Labeled AT-7519 High Concentration Conditions)
His-tagged CDK12/CycK complex was blended with a binding assay buffer supplemented with BODIPY-FL labeled AT-7519, terbium-labeled streptavidin and biotin-labeled anti-histidine antibody. This solution was added to an assay plate containing a test compound dispensed therein, and the mixture was left standing for 120 min at room temperature. The final concentration of CDK12/CycK complex, BODIPY-FL-labeled AT-7519, terbium-labeled streptavidin and biotin-labeled anti-histidine antibody was set to 8 nM, 1320 nM, 0.2 nM, and 0.4 nM, respectively. The fluorescence intensity derived from terbium and BODIPY-FL was measured using Envision. The signal value of each well was determined using the TR-FRET ratio calculated by the following formula. TR-FRET ratio=(fluorescence value of BODIPY-FL)÷(fluorescence value of terbium)
The inhibitory rate (%) of the test compound against CDK12 was calculated by the following formula. Inhibitory rate (%)=(1−(TR-FRET ratio of test compound−blank)÷(control−blank))×100
The TR-FRET ratio of the CDK12 enzyme reaction mixture under compound non-addition conditions is indicated as control, and the TR-FRET ratio under 30 μM AT-7519 addition conditions is indicated as blank.
The inhibitory rate of the test compound against CDK12 at 1 μM is shown below.

CDK12/CycK complex, sequence (Q9NYV4 whole entry, species assumed): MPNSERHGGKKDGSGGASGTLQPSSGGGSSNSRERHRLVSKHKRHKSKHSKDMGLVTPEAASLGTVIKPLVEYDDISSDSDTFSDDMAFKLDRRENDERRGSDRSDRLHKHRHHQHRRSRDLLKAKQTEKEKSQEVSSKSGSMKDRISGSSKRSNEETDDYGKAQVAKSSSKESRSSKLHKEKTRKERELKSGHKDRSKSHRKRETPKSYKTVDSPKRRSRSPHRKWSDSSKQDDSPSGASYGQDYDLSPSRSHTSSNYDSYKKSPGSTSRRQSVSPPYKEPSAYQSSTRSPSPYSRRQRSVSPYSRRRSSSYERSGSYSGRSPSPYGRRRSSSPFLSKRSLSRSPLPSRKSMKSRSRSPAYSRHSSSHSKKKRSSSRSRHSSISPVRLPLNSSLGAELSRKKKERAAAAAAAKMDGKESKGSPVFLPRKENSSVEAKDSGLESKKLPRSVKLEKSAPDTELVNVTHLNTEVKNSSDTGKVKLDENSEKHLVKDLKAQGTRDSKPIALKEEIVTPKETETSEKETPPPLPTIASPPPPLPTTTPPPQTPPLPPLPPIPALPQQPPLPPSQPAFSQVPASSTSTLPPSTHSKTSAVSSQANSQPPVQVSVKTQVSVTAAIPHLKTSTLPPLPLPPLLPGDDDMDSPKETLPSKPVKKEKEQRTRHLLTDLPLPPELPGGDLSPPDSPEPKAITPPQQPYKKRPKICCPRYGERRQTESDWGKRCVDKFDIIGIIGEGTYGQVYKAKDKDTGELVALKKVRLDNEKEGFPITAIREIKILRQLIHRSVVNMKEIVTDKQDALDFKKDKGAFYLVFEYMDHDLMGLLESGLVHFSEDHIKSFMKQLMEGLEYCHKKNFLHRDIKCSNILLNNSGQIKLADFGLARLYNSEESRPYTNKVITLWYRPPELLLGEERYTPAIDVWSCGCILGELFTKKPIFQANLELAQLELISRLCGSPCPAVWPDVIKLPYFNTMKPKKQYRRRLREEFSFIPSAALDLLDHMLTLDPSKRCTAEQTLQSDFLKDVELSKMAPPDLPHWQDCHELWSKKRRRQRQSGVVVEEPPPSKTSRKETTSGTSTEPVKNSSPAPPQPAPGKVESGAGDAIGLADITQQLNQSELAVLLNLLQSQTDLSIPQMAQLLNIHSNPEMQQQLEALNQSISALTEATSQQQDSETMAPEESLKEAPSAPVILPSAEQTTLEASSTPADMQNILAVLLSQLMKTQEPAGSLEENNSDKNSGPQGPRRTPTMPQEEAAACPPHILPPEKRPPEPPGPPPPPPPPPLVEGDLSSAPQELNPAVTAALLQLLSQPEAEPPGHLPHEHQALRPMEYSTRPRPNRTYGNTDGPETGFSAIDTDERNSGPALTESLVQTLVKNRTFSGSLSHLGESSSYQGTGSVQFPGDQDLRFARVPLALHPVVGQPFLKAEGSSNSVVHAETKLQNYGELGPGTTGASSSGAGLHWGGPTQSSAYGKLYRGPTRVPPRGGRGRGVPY
CDK12/CycK complex, sequence (O75909 whole entry partner, species assumed): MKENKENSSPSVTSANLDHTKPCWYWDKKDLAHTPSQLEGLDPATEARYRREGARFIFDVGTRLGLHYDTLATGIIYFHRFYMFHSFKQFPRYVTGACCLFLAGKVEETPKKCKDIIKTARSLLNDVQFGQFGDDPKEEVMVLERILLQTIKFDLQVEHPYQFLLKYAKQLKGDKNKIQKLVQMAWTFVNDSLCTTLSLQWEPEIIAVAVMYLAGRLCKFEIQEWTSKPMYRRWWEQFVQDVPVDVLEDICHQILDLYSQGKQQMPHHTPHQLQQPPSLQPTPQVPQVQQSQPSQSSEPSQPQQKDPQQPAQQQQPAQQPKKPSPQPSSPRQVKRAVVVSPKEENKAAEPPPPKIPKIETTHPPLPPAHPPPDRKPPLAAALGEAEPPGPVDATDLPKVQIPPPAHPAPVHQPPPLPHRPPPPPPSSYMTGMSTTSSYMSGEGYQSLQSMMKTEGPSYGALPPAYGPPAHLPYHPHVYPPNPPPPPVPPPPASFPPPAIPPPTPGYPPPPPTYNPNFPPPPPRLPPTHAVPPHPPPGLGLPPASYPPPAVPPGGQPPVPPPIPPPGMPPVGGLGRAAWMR

For `COc1ncc(-c2cnc(N(C(=O)NCC(F)F)[C@H]3CC[C@H](Nc4ncc(C(F)(F)F)c(-c5n[nH]cc5Cl)n4)CC3)cn2)cn1` [Example 744, 1-(trans-4-((4-(4-chloro-1H-pyrazol-3-yl)-5-(trifluoromethyl)pyrimidin-2-yl)amino)cyclohexyl)-3-(2,2-difluoroethyl)-1-(5-(2-methoxypyrimidin-5-yl)pyrazin-2-yl)urea], the inhibition (in general, the change of the read-out against control, counted positive when it falls) at 1 µM was 97% in assay [1] and 92% in assay [2].

`CCNC(=O)N(c1cnc(-c2cnn(C)c2)cn1)[C@H]1CC[C@H](Nc2ncc(C(F)(F)F)c(-c3ccn(C(F)F)n3)n2)CC1` [Example 764, 1-(trans-4-((4-(1-(difluoromethyl)-1H-pyrazol-3-yl)-5-(trifluoromethyl)pyrimidin-2-yl)amino)cyclohexyl)-3-ethyl-1-(5-(1-methyl-1H-pyrazol-4-yl)pyrazin-2-yl)urea]: the inhibition at 1 µM in assay [1] was 95%; in assay [2] it was 91%.

With `COc1ncc(-c2cnc(N(C(=O)OCC(F)F)[C@H]3CC[C@H](Nc4ncc(C(F)(F)F)c(-c5cncc(S(C)(=O)=O)c5)n4)CC3)cn2)cn1` [Example 766, 2,2-difluoroethyl (trans-4-((4-(5-(methanesulfonyl)pyridin-3-yl)-5-(trifluoromethyl)pyrimidin-2-yl)amino)cyclohexyl) (5-(2-methoxypyrimidin-5-yl)pyrazin-2-yl)carbamate], the values for the inhibition at 1 µM in assay [1] and in assay [2] were 99% and 96%, respectively.

Consider `COc1ncc(-c2cnc(N(C(=O)OCCN(C)C)[C@H]3CC[C@H](Nc4ncc(C(F)(F)F)c(-c5cncc(S(C)(=O)=O)c5)n4)CC3)cn2)cn1` [Example 767, 2-(dimethylamino)ethyl (trans-4-((4-(5-(methanesulfonyl)pyridin-3-yl)-5-(trifluoromethyl)pyrimidin-2-yl)amino)cyclohexyl) (5-(2-methoxypyrimidin-5-yl)pyrazin-2-yl)carbamate], for which the inhibition at 1 µM in assay [1] is 99%; in assay [2] it was 102%.

Turning to `CCCC(=O)N(c1cnc(-c2cnc(OC)nc2)cn1)[C@H]1CC[C@H](Nc2ncc(C(F)(F)F)c(-c3cncc(S(C)(=O)=O)c3)n2)CC1` [Example 798, N-(trans-4-((4-(5-(methanesulfonyl)pyridin-3-yl)-5-(trifluoromethyl)pyrimidin-2-yl)amino)cyclohexyl)-N-(5-(2-methoxypyrimidin-5-yl)pyrazin-2-yl)butanamide], the inhibition at 1 µM in assay [1] is 99%; in assay [2], 92%.

Turning to `CCNC(=O)N(c1cnc(-c2cnc(OC)nc2)cn1)[C@H]1CC[C@H](Nc2ncc(C(F)(F)F)c(-c3cncc(S(C)(=O)=O)c3)n2)CC1` [Example 799, 3-ethyl-1-(trans-4-((4-(5-(methanesulfonyl)pyridin-3-yl)-5-(trifluoromethyl)pyrimidin-2-yl)amino)cyclohexyl)-1-(5-(2-methoxypyrimidin-5-yl)pyrazin-2-yl)urea], the values for the inhibition at 1 µM in assay [1] and in assay [2] were 99% and 96%, respectively.

As to `COc1ncc(-c2cnc(N(C(=O)NCC(C)(C)O)[C@H]3CC[C@H](Nc4ncc(C(F)(F)F)c(-c5ccn(C(F)F)n5)n4)CC3)cn2)cn1` [Example 804, 1-(trans-4-((4-(1-(difluoromethyl)-1H-pyrazol-3-yl)-5-(trifluoromethyl)pyrimidin-2-yl)amino)cyclohexyl)-3-(2-hydroxy-2-methylpropyl)-1-(5-(2-methoxypyrimidin-5-yl)pyrazin-2-yl)urea], the values for the inhibition at 1 µM in assay [1] and in assay [2] were 96% and 94%, respectively.

Turning to `Cn1cc(-c2cnc(N(C(=O)OCC(F)F)[C@H]3CC[C@H](Nc4ncc(C(F)(F)F)c(-c5cncc(S(C)(=O)=O)c5)n4)CC3)cn2)cn1` [Example 820, 2,2-difluoroethyl (trans-4-((4-(5-(methanesulfonyl)pyridin-3-yl)-5-(trifluoromethyl)pyrimidin-2-yl)amino)cyclohexyl) (5-(1-methyl-1H-pyrazol-4-yl)pyrazin-2-yl)carbamate], the inhibition at 1 µM in assay [1] and in assay [2] was 99% each time.

For `COc1ncc(-c2cnc(N(C(=O)CCC(F)F)[C@H]3CC[C@H](Nc4ncc(C(F)(F)F)c(-c5cncc(S(C)(=O)=O)c5)n4)CC3)cn2)cn1` [Example 826, 4,4-difluoro-N-(trans-4-((4-(5-(methanesulfonyl)pyridin-3-yl)-5-(trifluoromethyl)pyrimidin-2-yl)amino)cyclohexyl)-N-(5-(2-methoxypyrimidin-5-yl)pyrazin-2-yl)butanamide], the inhibition at 1 µM in assay [1] is 98%; in assay [2] it was 106%.

As for `CCOCC(=O)N(c1cnc(-c2cnc(OC)nc2)cn1)[C@H]1CC[C@H](Nc2ncc(C(F)(F)F)c(-c3cncc(S(C)(=O)=O)c3)n2)CC1` [Example 827, 2-ethoxy-N-(trans-4-((4-(5-(methanesulfonyl)pyridin-3-yl)-5-(trifluoromethyl)pyrimidin-2-yl)amino)cyclohexyl)-N-(5-(2-methoxypyrimidin-5-yl)pyrazin-2-yl)acetamide], the inhibition at 1 µM was determined as 99% in assay [1] and 109% in assay [2].

With `CCOCC(=O)N(c1cnc(-c2cnn(C)c2)cn1)[C@H]1CC[C@H](Nc2ncc(C(F)(F)F)c(-c3cncc(S(C)(=O)=O)c3)n2)CC1` [Example 831, 2-ethoxy-N-(trans-4-((4-(5-(methanesulfonyl)pyridin-3-yl)-5-(trifluoromethyl)pyrimidin-2-yl)amino)cyclohexyl)-N-(5-(1-methyl-1H-pyrazol-4-yl)pyrazin-2-yl)acetamide], the figures for the inhibition at 1 µM in assay [1] and in assay [2] were 99% and 107%, respectively.

Regarding `COc1ncc(-c2cnc(N(C(=O)OCC(C)(C)O)[C@H]3CC[C@H](Nc4ncc(C(F)(F)F)c(-c5cncc(S(C)(=O)=O)c5)n4)CC3)cn2)cn1` [Example 836, 2-hydroxy-2-methylpropyl (trans-4-((4-(5-(methanesulfonyl)pyridin-3-yl)-5-(trifluoromethyl)pyrimidin-2-yl)amino)cyclohexyl) (5-(2-methoxypyrimidin-5-yl)pyrazin-2-yl)carbamate], the results for the inhibition at 1 µM in assay [1] and in assay [2] were 99% and 106%, respectively.

For `Cn1cc(-c2cnc(N(C(=O)OCC(C)(C)O)[C@H]3CC[C@H](Nc4ncc(C(F)(F)F)c(-c5cncc(S(C)(=O)=O)c5)n4)CC3)cn2)cn1` [Example 838, 2-hydroxy-2-methylpropyl (trans-4-((4-(5-(methanesulfonyl)pyridin-3-yl)-5-(trifluoromethyl)pyrimidin-2-yl)amino)cyclohexyl) (5-(1-methyl-1H-pyrazol-4-yl)pyrazin-2-yl)carbamate], the inhibition at 1 µM in assay [1] was 98%; in assay [2], 103%.

On to `COc1ncc(-c2cnc(N(C(=O)OCC(C)(C)O)[C@H]3CC[C@H](Nc4ncc(C(F)(F)F)c(-c5n[nH]cc5Cl)n4)CC3)cn2)cn1` [Example 841, 2-hydroxy-2-methylpropyl (trans-4-((4-(4-chloro-1H-pyrazol-3-yl)-5-(trifluoromethyl)pyrimidin-2-yl)amino)cyclohexyl) (5-(2-methoxypyrimidin-5-yl)pyrazin-2-yl)carbamate], for which the results for the inhibition at 1 µM in assay [1] and in assay [2] were 99% and 79%, respectively.

For `COc1ncc(-c2ccc(N(C(=O)OCCN(C)C)[C@H]3CC[C@H](Nc4ncc(C(F)(F)F)c(-c5cncc(S(C)(=O)=O)c5)n4)CC3)nc2)cn1` [Example 848, 2-(dimethylamino)ethyl (trans-4-((4-(5-(methanesulfonyl)pyridin-3-yl)-5-(trifluoromethyl)pyrimidin-2-yl)amino)cyclohexyl) (5-(2-methoxypyrimidin-5-yl)pyridin-2-yl)carbamate], the “1 μM inhibitory rate (%)” value in assay [1] is 99%; in assay [2], 108%.

As for `COc1ncc(-c2ccc(N(C(=O)NCC(C)(C)O)[C@H]3CC[C@H](Nc4ncc(C(F)(F)F)c(-c5ccn(C(F)F)n5)n4)CC3)nc2)cn1` [Example 849, 1-(trans-4-((4-(1-(difluoromethyl)-1H-pyrazol-3-yl)-5-(trifluoromethyl)pyrimidin-2-yl)amino)cyclohexyl)-3-(2-hydroxy-2-methylpropyl)-1-(5-(2-methoxypyrimidin-5-yl)pyridin-2-yl)urea], the figures for the inhibition at 1 µM in assay [1] and in assay [2] were 97% and 110%, respectively.
